The source of these data is patent publication US9499570B2, “Boron containing small molecules” (priority 2010, dated 2016).

The test system of experiment [1] is Brugia malayi. Description: Brugia malayi in vitro assay, adult female worms. The note with it: 50 uM. As for the experimental part:
Adult female worms are shipped from TRS Labs Inc. (Nonglak Supakorndej, Lab Director, 295 Research Dr., Athens, Ga. 30605; 706-549-0764) via Fed Ex. Individual worms are shipped in 2 mls vials with RPMI on Mondays and arrive at the […] Center lab on Tuesday mornings. Individual worms are poured into each well (24-well tissue culture plates) to avoid handling worms since they are very delicate and easily broken. Transport media is removed and replaced with 0.5 mls of RPMI-1640 (25 mM HEPES, 2 g/L NaHCO3, Antibiotic/Antimycotic, 5% HI FBS). Worms are maintained in a 37° C. 5% CO2 incubator. Compounds are added directly to each duplicate well (5 ul of 5 mM for a final concentration of 50 uM). DMSO (5 ul) is used as a negative control and Ivermectin (Sigma) is used as a positive control at 100 uM/well and 20 uM/well. Adult filarial nematodes can shed/give birth to microfilarial worms (mf) during the course of the assay. Wells were reviewed for the presence of mf, and the viability of mf, by visual observation of the well on the last day of observation (Day 7). Plates are examined once a day for 4-7 days. […] If changes are observed, worms are more closely examined under a dissecting microscope.

The subject of experiment [2] is Schistosoma mansoni schistosomula. Description: Schistosoma mansoni schistosomula phenotype screen in vitro. The note with it: Second Set, 5 uM, listed as 6-(1-Hydroxy-1,3-dihydro-benzo[c][1,2]oxaborol-5-yloxy)-2-(4-oxo-pentyloxy)-5-ch. The source says: (§1) Puerto Rican isolates of S. mansoni using Biomphalaria glabrata snails and golden hamsters as intermediate and definitive hosts, respectively, were maintained and handled in the University of California-San Francisco Sandler Center for Tropical Medicine. Patent B. glabrata snails (6-8 weeks after exposure to 5-10 infectious miracidia) were induced to shed infective larvae (cercariae) under light stimulus into the surrounding water. Cercariae were washed in rounds of ice-cold water and concentrated through and over sieves of varying pore sizes. They were then mechanically sheared (separation of heads from tails) as described in Colley D G, et al. Exp Parasitol 1974, 35:44-51, in ice-cold Incomplete Medium 169 (as described in Basch P F. J Parasitol 1981, 67:179-185, minus FBS and antibiotics) by passing 15 times through a double headed 22-gauge syringe needle connected to two 10 mL syringes. The resulting cercarial heads (schistosomula) were separated from their tails by swirling in a petri dish. Concentrated schistosomula were added to a sterile 1.5 mL centrifuge tube and allowed to settle over ice. Schistosomula were transferred to a sterile environment and washed 4 times in Incomplete Medium 169 prior to plating.
(§2) Two sets of screening were performed. In the first set, compounds were screened against schistosomula and observations were made at 24 hours, 2 days, 3 days, 4 days, and 6 days. In the second set, compounds were screened against schistosomula with observations at 24 hours, 2 days, 3 days, and 4 days and adult worms at 7 hours, 24 hours, 4 days, and 6 days.
Plates contain 200 schistosomula/well in […] complete Basch medium and were maintained at 37° C. in a 5% CO2 atmosphere. All compounds were tested in duplicate with at least two experimental replicates. Compounds and control compounds were added to the plates using the Biomek FXp using 96-well disposable tips. Final concentration of DMSO in each well was 0.5%.
(§3) A semi-quantitative and controlled nomenclature for phenotypes that can arise as a result of compound insult to both schistosomula and adults was utilized (Abdulla M H, et al., PLoS Negl Trop Dis 2009, 3:e478). Phenotypes were recorded by visual inspection and on a flexible time basis but at least at 24 h and 4 day time-points in the case of large scale screening. […] To help eliminate bias, two screen analysts scored phenotypes ‘blind’ both to knowledge of the contents of each screening plate and the phenotypes scored by his/her colleague. Upon completing their individual assessments, each analyst's ‘hit sheet’ was then compared to derive a ‘consensus hit sheet’. Discrepancies in analysts' hit sheets were re-evaluated under the microscope to eventually make a consensus hit call.
(§4) Hyper-coiled and coiled represent a verbal description of the visual phenotype as compared to the DMSO control. The + and ++ and +++ means more of the phenotype which preceded it. The − means less of the phenotype which preceded it. Results

Experiment [3] has as its system Schistosoma mansoni adult worms. The experiment in a line: Schistosoma mansoni adult worm phenotype screen in vitro. The note with it: Second Set, 5 uM.
Excerpt: as §1, §2
Given the delicacy and size (0.5-1.5 cm in length) of this stage all operations were performed manually by the Sandler Center. 24-well plates were set up with compound (final DMSO concentration=0.5%) containing approximately 5 pairs of worms (S. mansoni has separate sexes) in 2 mL complete Basch medium per well. Plates were maintained at 37° C. in a 5% CO2 atmosphere. All compounds were tested in duplicate with at least two experimental replicates.
as §3, §4

“Also recorded” adds a separate entry of the source.

On to `CC(C)OCCOc1nc(Oc2ccc3c(c2)COB3O)ccc1C#N` [6-(1-hydroxy-1,3-dihydrobenzo[c][1,2]oxaborol-5-yloxy)-2-(4-isopropoxyethoxy)nicotinonitrile], for which, in experiment [1] (trial one), the “Presence and viability of microfilarial worms (mf) Day 7” value (“Presence and viability” for short) was “mf and alive”; the “Worm activity / phenotype Day 1” value is given as “hyper-; also recorded: coiled”; the “Worm activity / phenotype Day 3” value is reported as “hyper-; also recorded: coiled”; the “Worm activity / phenotype Day 7” value is 0, and coiled. In experiment [1] (trial two), the “Presence and viability” value was “no mf and obs”; the “Worm activity / phenotype Day 1” value was “hyper-; also recorded: coiled”; the “Worm activity / phenotype Day 2” value is given as “hyper-; also recorded: coiled”; the “Worm activity / phenotype Day 3” value is 4 (4=highly active (controls)). Further, in experiment [1] (trial two), the “Worm activity / phenotype Day 7” value is 0, and coiled.

Consider `CC(=O)CCCOc1nc(Oc2ccc3c(c2)COB3O)c(Cl)cc1C#N` [D231, 5-Chloro-6-(1-hydroxy-1,3-dihydrobenzo[c][1,2]oxaborol-5-yloxy)-2-(4-oxopentyloxy)nicotinonitrile], for which, in experiment [1] (trial one), the “Presence and viability” value is “no mf and obs”; the “Worm activity / phenotype Day 1” value is recorded as “hyper-; also recorded: coiled”; the “Worm activity / phenotype Day 2” value is given as “hyper-; also recorded: coiled”; the “Worm activity / phenotype Day 7” value was 0, and coiled. Further, in experiment [1] (trial two), the “Presence and viability” value is “no mf and obs”; the “Worm activity / phenotype Day 1” value is “hyper-; also recorded: coiled”; the “Worm activity / phenotype Day 2” value is on record as “hyper-; also recorded: coiled”; the “Worm activity / phenotype Day 7” value was 0, and coiled. In addition, in experiment [2] (24 h), the “Schistosomula (juvenile infective form) worm screen phenotype 24 h” value is “R, O++,; also recorded: some deg-m”. Also, the “Schistosomula (juvenile infective form) worm screen phenotype 2 d” value in experiment [2] (2 d) is “O++, and R−, and more and deg-M”. Moreover, in experiment [2] (3 d), the “Schistosomula (juvenile infective form) worm screen phenotype 3 d” value was “O++, R−,; also recorded: more deg-M”. For the same molecule, the “Schistosomula (juvenile infective form) worm screen phenotype 4 d” value in experiment [2] (4 d) is “O++, R−,; also recorded: more deg-M”. For the same molecule, in experiment [3] (7 h, listed as 6-(1-Hydroxy-1,3-dihydro-benzo[c][1,2]oxaborol-5-yloxy)-2-(4-oxo-pentyloxy)-5-ch), the “Adult worm screen phenotype 7 h” value is listed as “O+++,; also recorded: Sex sep (Sex sep=worm pairs have separated); also recorded: (violent; also recorded: motion)”. Moreover, in experiment [3] (24 h, listed as 6-(1-Hydroxy-1,3-dihydro-benzo[c][1,2]oxaborol-5-yloxy)-2-(4-oxo-pentyloxy)-5-ch), the “Adult worm screen phenotype 24 h” value was “O+++, Sex; also recorded: sep (violent; also recorded: motion)”. In addition, the “Adult worm screen phenotype 4 d” value in experiment [3] (4 d, listed as 6-(1-Hydroxy-1,3-dihydro-benzo[c][1,2]oxaborol-5-yloxy)-2-(4-oxo-pentyloxy)-5-ch) was “O++, sex; also recorded: sep on sides,; also recorded: males dark”. The “Adult worm screen phenotype 6 d*” value in experiment [3] (6 d) is listed as “Dark, S”.
